The target of experiment [1] is T1, GDP-loaded kRas (1-169) G12C, C51S, C80L, C118S (Homo sapiens, UniProt P01116, C118S/C51S/C80L/G12C).
T1 construct: GDP-loaded kRas (1-169) G12C, C51S, C80L, C118S
In words: Mass Spectrometry Reactivity Assay (MSRA), covalent adduct with kRas G12C. Particulars: 0.5 h at room temperature; 5 μM KRas protein; typical final concentration of the compounds 10 μM. Format: binding. As for the experimental part: Mass Spectrometry Reactivity Assay (MSRA)
Compounds presented in the present invention covalently bind to kRas G12C using MSRA to detect a covalent adduct of the exemplary compound and kRas G12C. GDP-loaded kRas (1-169) G12C, C51S, C80L, C118S were diluted in the protein assay buffer 25 mM Hepes pH7.5, 200 mM NaCl, 5% glycerol to concentration of 5 μM and 20 μl of protein was transferred into 96-well plate. […] See K-Ras(G12C) inhibitors allosterically control GTP affinity and effector interactions; Ostrem J M, Peters U, Sos M L, Wells J A, Shokat K M; Nature. 2013, Nov. 28; 503(7477):548-51.
Exemplary compounds dissolved in DMSO were diluted 100-fold into solution containing 20 μl of 5 μM KRas protein in the 96-well plate to initiate the reaction. Mosquito (TPP Lab tech) liquid handling robot was used to add compounds to protein solution. Typical final concentration of the compounds was 10 μM. The plates were placed on a shaker for 1 min at RT, sealed and incubated at room temperature for specified time period. 5 μl of reaction mix was added to 10 μl of 0.2% formic acid stop solution and mixed well. Typical end points were 30, 120, 600 and 1440 min.
Data were collected using Waters Acquity H-class UPLC system/Xevo G2-XS TOF mass spectrometer. The protein was injected in their liquid phase onto a Bruker Microtrap protein column TR1/15109/03. The following buffers were used to set LC gradient: Buffer A: 0.2% formic acid H20; B: 0.2% formic acid CAN. The protein was eluted from the column using the following LC Gradient: 0-0.4 min, 10% B to 30% B; 0.4 min-2.4 min, to 90% B, 2.5 min, 10% B, 3 min, 10% B. Initial data analysis was performed using MaxEnt software right after data acquisition.
The standard auto processing function was used to define percentage of unmodified and modified kRas protein using MexEnt software right after data acquisition. The highest peak was defined as 100% while smaller peak as assigned the number defined by autoprocessing function. The percent of modification corresponding to modified with exemplary compound and unmodified KRas GDP-loaded kRas (1-169) G12C, C51S, C80L, C118S were exported to Xcel data analysis software.
The percent of modified protein at the defined concentration of exemplary compound was calculated using the following formula: % mod=Num of modified peak/Sum of modified+unmodified.

Experiment [2] has as its target T2, KRAS G12C in MiaPaCa2 cells (Homo sapiens, UniProt P01116, G12C).
T2 construct: endogenous in cells; host or cells: MiaPaCa2
In words: MiaPaCa2 Cell Activity Assay (Raf-1 RBD capture of active Ras, MSD). To be noted: MIAPaCa-2 cells, 6 hours treatment; assay limit is 30.0 μM. Format: cell-based. As for the experimental part: MiaPaCa2 Cell Activity Assay
Compounds presented in the present invention lead to the accumulation of the GDP bound Ras upon treatment of human cancer cell line.
The accumulation of the GDP-bound KRAS G12C in cellular environment was measured based on the principle that KRAS G12C only binds to its downstream kinase; Raf-1 (MAP Kinase Kinase Kinase), when in its active-GTP bound state. In this state, Ras binded to a domain of Raf-1 kinase referred to as the Ras Binding Domain (RBD).
MiaPaCa2 cells were grown in DMEM medium (Gibco 11995) supplemented with 10% fetal bovine serum and 1% penicillin/streptomycin. Cells were seeded in 96-well tissue culture plates at a density of 40,000 cells/well and allowed to attach for 16-24 hours. Test compounds were prepared as a 10 mM stock in DMSO and serially diluted in 100% DMSO using a 3-fold dilution scheme. An intermediate 5× concentrated plate in complete growth medium was made and 25 μl/well was added to the 100 μl of cells for a final concentration of 0.1% DMSO. Each concentration of exemplary compound was tested in duplicate. The negative control wells were cells with control inhibitor at 10 μM, and the positive control wells were cells without drugs, DMSO only. Plates were incubated for 6 hours at 37° C., 5% CO2. Following treatment, cells were washed 3× with ice-cold PBS and 100 μl/well ice-cold 1× Assay/Lysis. Buffer with protease inhibitors was added (25 mM HEPES, pH 7.5, 150 mM NaCl, 1% NP-40, 10 mM MgCl2, 1 mM EDTA, 2% Glycerol). Following lysis samples were frozen at −80° C.
Raf-1 RBD (LJIC-1988A1) was diluted to 100 ng/well in PBS and 5 μl/well was spot coated onto MSD high bind SECTOR plates (L15XB). Plates were incubated at room temperature for 1 hour on an orbital shaker. Plates were washed with PBS/0.05% Tween-20 and 50 μl/well of thawed lysate samples were added, followed by 50 μl of 1% MSD Blocker A in PBS/0.05% Tween-20 (R93BA). Plates were incubated for 1 hour on an orbital shaker and washed with PBS/0.05% Tween-20. 25 μl/well of Anti-pan-Ras Antibody (Cell Biolabs 244003) diluted 1:3000 was added in 1% MSD Blocker A solution and plates were incubated for 1 hour on an orbital shaker and washed with PBS/0.05% Tween-20. SULFO-TAG goat anti-mouse secondary antibody (MSD R32AC) was diluted 1:500 in MSD Blocker A solution and added at 25 μL/well. Plates were incubated for 1 hour on an orbital shaker and washed with PBS/0.05% Tween-20. 150 μl/well of Read Buffer T (MSD R92TC) diluted 1:3 in H2O was added and plates were read on a Meso Scale Discovery Sector Imager S600.
KRAS signal was normalized to maximum inhibition and DMSO control values, and IC50 values were generated using a 4 parameter fit of the dose response curve. The decrease in IC50 reflects that the exemplary compound lead to a higher level of accumulation of GDP-bound KRAS G12C than another exemplary compounds at specific timepoint of treatment of cancer cell line.

In the case of `C=CC(=O)N1CCN(c2ncnc3c2C[C@@H](C)[C@H](c2c(C)ccc4[nH]ncc24)C3)CC1` (relative stereo) [Example A4, 1-{4-[(6R,7R)-rel-6-methyl-7-(5-methyl-1H-indazol-4-yl)-5,6,7,8-tetrahydroquinazolin-4-yl]piperazin-1-yl}prop-2-en-1-one], the “% Modification (0.5 h)” value in experiment [1] amounted to 53%. In experiment [2], this compound displayed a half-maximal inhibitory concentration (IC50) of 1.3 µM.

Turning to `C=CC(=O)N1CCN(c2ncnc3c2C[C@@H](CO)[C@H](c2c(C)ccc4[nH]ncc24)C3)CC1` (relative stereo) [Example A7, 1-{4-[(6R,7R)-rel-6-(hydroxymethyl)-7-(5-methyl-1H-indazol-4-yl)-5,6,7,8-tetrahydroquinazolin-4-yl]piperazin-1-yl}prop-2-en-1-one], in experiment [1], the “% Modification (0.5 h)” value came out at 11%. The compound further gave an IC50 in experiment [2] of 29.3 µM.

On to `C=CC(=O)N1CCN(c2ncnc3c2C[C@@H](C)[C@H](c2c(Cl)c(C)cc4[nH]ncc24)C3)CC1` (relative stereo) [Example A8, 1-{4-[(6R,7R)-rel-7-(5-chloro-6-methyl-1H-indazol-4-yl)-6-methyl-5,6,7,8-tetrahydroquinazolin-4-yl]piperazin-1-yl}prop-2-en-1-one], for which, in experiment [1], the “% Modification (0.5 h)” value was determined as 54%. Further, inhibition in experiment [2] was half-maximal at 0.462 µM (IC50).

Turning to `C=CC(=O)N1CCN(c2ncnc3c2C[C@@H](C)[C@H](c2c(C)c(Cl)cc4[nH]ncc24)C3)CC1` (relative stereo) [Example A9, 1-{4-[(6R,7R)-rel-7-(6-chloro-5-methyl-1H-indazol-4-yl)-6-methyl-5,6,7,8-tetrahydroquinazolin-4-yl]piperazin-1-yl}prop-2-en-1-one], the “% Modification (0.5 h)” value in experiment [1] worked out at 77%. This compound also gave an IC50 in experiment [2] of 0.155 µM.

`C=CC(=O)N1CCN(c2nc(N3CCN(C)CC3)nc3c2C[C@@H](C)[C@H](c2c(C)ccc4[nH]ncc24)C3)CC1` (relative stereo) [Example F4]: the “% Modification (0.5 h)” value in experiment [1] amounted to 22%. The same compound gave an IC50 in experiment [2] of 4.29 µM.

On to `C=CC(=O)N1CCN(c2nc(N3CC(CN(C)C)C3)nc3c2C[C@@H](C)[C@H](c2c(C)ccc4[nH]ncc24)C3)CC1` (relative stereo) [Example F9], for which the “% Modification (0.5 h)” value in experiment [1] was found to be 32%. Also, in experiment [2], the IC50 worked out at 1 µM.

Take `C=CC(=O)N1CCN(c2ncnc3c2CC[C@H](c2c(C)ccc4[nH]ncc24)C3)CC1` (single isomer, unassigned) [Example A3]: in experiment [1], the “% Modification (0.5 h)” value is reported as 39%. In experiment [2], this compound gave an IC50 of 4.15 µM.

As for `C=CC(=O)N1CCN(c2ncnc3c2CC[C@H](c2cc(O)cc4ccccc24)C3)CC1` (single isomer, unassigned) [Example G3], the “% Modification (0.5 h)” value in experiment [1] worked out at 73%. In experiment [2], the IC50 is 1.11 µM.

Take `C=CC(=O)N1CCN(c2ncnc3c2CCC(c2c(C)ccc4[nH]ncc24)C3)CC1` (stereo not shown) [Example A1, 1-{4-[7-(5-methyl-1H-indazol-4-yl)-5,6,7,8-tetrahydroquinazolin-4-yl]piperazin-1-yl}prop-2-en-1-one]: in experiment [1], the “% Modification (0.5 h)” value came out at 14%. Also, the IC50 in experiment [2] amounted to 7.86 µM.

Consider `C=CC(=O)N1CC2(C1)CN(c1ncnc3c1CCC(c1c(C)ccc4[nH]ncc14)C3)C2` (stereo not shown) [Example B1, 1-{6-[7-(5-methyl-1H-indazol-4-yl)-5,6,7,8-tetrahydroquinazolin-4-yl]-2,6-diazaspiro[3.3]hept-2-yl}prop-2-en-1-one], for which the “% Modification (0.5 h)” value in experiment [1] came out at 9%. In experiment [2], this compound had an IC50 of 18.7 µM.

As for `C=CC(=O)N1CCN(c2ncnc3c2CCC(c2c(C)ccc4[nH]ncc24)C3)CC1C` (stereo not shown) [Example B3, 1-{2-methyl-4-[7-(5-methyl-1H-indazol-4-yl)-5,6,7,8-tetrahydroquinazolin-4-yl]piperazin-1-yl}prop-2-en-1-one], in experiment [1], the “% Modification (0.5 h)” value stood at 7%. In experiment [2], this compound came in with an IC50 of 28.4 µM.

`C=CC(=O)N1CCN(c2nc(OCCOC)nc3c2CCC(c2c(C)ccc4[nH]ncc24)C3)CC1` (stereo not shown) [Example C1, 1-{4-[2-(2-methoxyethoxy)-7-(5-methyl-1H-indazol-4-yl)-5,6,7,8-tetrahydroquinazolin-4-yl]piperazin-1-yl}prop-2-en-1-one]: the “% Modification (0.5 h)” value in experiment [1] was 19%. For the same compound, in experiment [2], half-maximal inhibition (IC50) required 9.84 µM.

Take `C=CC(=O)N1CCN(c2nc(OCCO)nc3c2CCC(c2c(C)ccc4[nH]ncc24)C3)CC1` (stereo not shown) [Example C3, 1-{4-[2-(2-hydroxyethoxy)-7-(5-methyl-1H-indazol-4-yl)-5,6,7,8-tetrahydroquinazolin-4-yl]piperazin-1-yl}prop-2-en-1-one]: in experiment [1], the “% Modification (0.5 h)” value amounted to 15%. Moreover, half-maximal inhibition in experiment [2] (IC50) required 12 µM.

Turning to `C=CC(=O)N1CCN(c2nc(OCCCO)nc3c2CCC(c2c(C)ccc4[nH]ncc24)C3)CC1` (stereo not shown) [Example C4, 1-{4-[2-(3-hydroxpropoxy)-7-(5-methyl-1H-indazol-4-yl)-5,6,7,8-tetrahydroquinazolin-4-yl]piperazin-1-yl}prop-2-en-1-one], in experiment [1], the “% Modification (0.5 h)” value was 34%. The compound further had an IC50 in experiment [2] of 3.61 µM.

With `C=CC(=O)N1CCN(c2nc(N3CC(N(C)C)C3)nc3c2C[C@H](C)[C@@H](c2c(Cl)c(C)cc4[nH]ncc24)C3)CC1` [Example F8, 1-(4-{(6S,7S)-7-(5-chloro-6-methyl-1H-indazol-4-yl)-2-[3-(dimethylamino)azetidin-1-yl]-6-methyl-5,6,7,8-tetrahydroquinazolin-4-yl}piperazin-1-yl)prop-2-en-1-one], in experiment [1], the “% Modification (0.5 h)” value amounted to 12%. Further, the half-maximal inhibitory concentration (IC50) in experiment [2] was determined as 22.9 µM.

`C=CC(=O)N1CCN(c2nc(N3CC(NC)C3)nc3c2C[C@@H](C)[C@H](c2c(C)c(Cl)cc4[nH]ncc24)C3)CC1` [Example H1, 1-(4-{(6R,7R)-7-(6-chloro-5-methyl-1H-indazol-4-yl)-6-methyl-2-[3-(methylamino)azetidin-1-yl]-5,6,7,8-tetrahydroquinazolin-4-yl}piperazin-1-yl)prop-2-en-1-one] registered an IC50 in experiment [2] of 0.178 µM.

These data come from patent US10590115B2, “Tetrahydroquinazoline derivatives useful as anticancer agents” (PFIZER INC., priority 2018, dated 2020).
